The record followed here is patent EP0326329B1, “Quinazoline derivatives useful as insecticides” (Dow AgroSciences LLC, priority 1988, dated 1989).

Read-outs that look alike come from different tables or passages of the source.

Common to all, as to format: in vivo
Data set [1] concerns melon aphids (Aphis gossypii Glover). The data set can be described thus: Mite/insect screen, sprayed squash cotyledons (MA). The conditions noted are these: percent mortality; for mortality at 400 ppm / mortality at 200 ppm: Aphis gossypii, read-out: MA RESULTS %. An outline of the steps:
(§1)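 Compounds dissolved in acetone/alcohol with TOXIMUL R/S emulsifiers, diluted with water to test concentrations, and sprayed to runoff on both leaf surfaces at 10 psi, then dried 1 h. Excised treated squash leaves given southern armyworm larvae; aphid and spider mite tests on sprayed squash cotyledons. Percent mortality and phytotoxicity scored after standard exposure.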

Data set [2] concerns Pyricularia oryzae (rice blast). The conditions noted are these: disease control rating, foliar spray, host rice; 400 ppm (+++ at 100 ppm).
The subject of data set [3] is Southern corn rootworm (Diabrotica undecimpuctata howardi Barber). Briefly: Mite/insect screen, soil treatment (CRW). The conditions noted are these: percent mortality, soil treatment; for mortality at 24 ppm / mortality at 12 ppm: Diabrotica, read-out: CRW RESULTS %. The gist of the method:
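Five 2–3 instar larvae were placed on dry sandy soil with a presoaked corn seed after the soil had received 1 mL of compound solution and dried 6–12 h; cups were kept capped at 23°C. Mortality (%) and phytotoxicity were read after standard exposure. Formulation: acetone/alcohol with emulsifiers, water-diluted.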

The test system of data set [4] is Erysiphe graminis tritici (powdery mildew). The data set can be described thus: Greenhouse Test 1, foliar spray fungicide screen (POWD MDEW), host wheat. Conditions: disease control rating, 400 ppm (+++ at 100 ppm).
The test system of data set [5] is southern armyworm (Spodopetra eridania Cramer). Briefly: Mite/insect screen, sprayed squash leaves (SAW). The conditions noted are these: percent mortality; for mortality at 400 ppm / mortality at 200 ppm: Spodoptera eridania, read-out: SAW RESULTS %. An outline of the steps:
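Mortality and phytotoxicity read after standard exposure periods on sprayed squash: cotyledons for melon aphids and twospotted spider mites, excised leaves placed with southern armyworm larvae. Spray solutions were water dilutions of acetone/alcohol stocks containing TOXIMUL R and S emulsifiers, applied to runoff at 10 psi and air-dried one hour.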

The subject of data set [6] is Twospotted spider mites (Tetranychus urticae Koch). Briefly: Mite/insect screen, sprayed squash cotyledons (SM). Conditions: percent mortality; for mortality at 400 ppm / mortality at 200 ppm: Tetranychus urticae, read-out: SM RESULTS %. The gist of the method: as §1
Data set [7] concerns Puccinia recondita tritici (leaf rust). The data set can be described thus: Greenhouse Test 1, foliar spray fungicide screen (LEAF RUST), host wheat. The conditions noted are these: disease control rating, 400 ppm (+++ at 100 ppm).
For data set [8], the system named is Pseudoperonospora cubensis (downy mildew). The data set can be described thus: Greenhouse Test 1, foliar spray fungicide screen (DOWN MDEW), host squash. The conditions noted are these: disease control rating, 400 ppm (+++ at 100 ppm).
Data set [9] has as its system Botrytis cinerea (gray mold). Briefly: Greenhouse Test 1, foliar spray fungicide screen (GRAY MOLD), host grape berries. The conditions noted are these: disease control rating, 400 ppm (+++ at 100 ppm).
[10] abbreviates: melon aphids, sprayed squash cotyledons, RATE 400 PPM.
[11] abbreviates: corn rootworm, CRW RATE 24.00 PPM.
[12] abbreviates: Southern armyworm, sprayed squash leaves, RATE 400 PPM.
Setting [13] is: twospotted spider mites, sprayed squash cotyledons, RATE 400 PPM.

As for `Clc1ccccc1CCOc1ncnc2ccccc12` [Example 11, 4-[2-(2-chlorophenyl)ethoxy]quinazoline], the mortality at 400 ppm in [1] (spray rate 400 ppm), in data set [5] (spray rate 400 ppm) and in data set [6] (spray rate 400 ppm) was 0% in each case. For the same molecule, the “RICE BLAST” value in data set [2] is reported as “- (- = 0-19% control at 400 ppm)”. Besides, the mortality at 24 ppm in data set [3] (CRW rate 24.00 ppm) amounted to 0%. Besides, the “POWD MDEW” value in [4] is on record as “++ (++ = 90-100% control at 400 ppm)”. For the same molecule, in [7], the “LEAF RUST” value is on record as “++ (++ = 90-100% control at 400 ppm)”. Moreover, the “DOWN MDEW” value in [8] is on record as “+++ (+++ = 90-100% control at 100 ppm)”. Moreover, the “GRAY MOLD” value in [9] was “- (- = 0-19% control at 400 ppm)”.

As for `CC(C)(C)c1ccc(CCCCOc2ncnc3c(F)cccc23)cc1` [Example 200, 8-fluoro-4-[4-[4-(t-butyl)phenyl]butoxy]quinazoline], the mortality at 200 ppm was found to be 60% in data set [1] (melon aphids, sprayed squash cotyledons, RATE 200 PPM); 0% in data set [5] (Southern armyworm, sprayed squash leaves, RATE 200 PPM); 80% in [6] (twospotted spider mites, sprayed squash cotyledons, RATE 200 PPM). The results for the mortality at 400 ppm in data set [1] (setting [10]), in [5] (setting [12]) and in data set [6] (setting [13]) were 80%, 0% and 100%, respectively. The “RICE BLAST” value in data set [2] is reported as “+++ (+++ = 90-100% control at 100 ppm)”. Besides, in data set [3] (corn rootworm, CRW RATE 12.00 PPM), the mortality at 12 ppm stood at 100%. Also, the mortality at 24 ppm in [3] (setting [11]) is 100%. Besides, the “POWD MDEW” value in data set [4] is given as “+++ (+++ = 90-100% control at 100 ppm)”. Moreover, in data set [7], the “LEAF RUST” value is recorded as “+ (+ = 20-89% control at 400 ppm)”. In addition, the “DOWN MDEW” value in data set [8] is given as “+++ (+++ = 90-100% control at 100 ppm)”. In data set [9], the “GRAY MOLD” value was “- (- = 0-19% control at 400 ppm)”.

Take `Fc1ccccc1Oc1ccc(CCOc2ncnc3c(F)cccc23)cc1` [Example 198, 8-fluoro-4-[2-[4-(2-fluorophenoxy)phenyl]ethoxy]quinazoline]: the mortality at 400 ppm in [1] (setting [10]) was found to be 0%; in data set [5] (setting [12]), 100%; in [6] (setting [13]) it was 0%. The mortality at 200 ppm in [1] (spray rate 200 ppm), in [5] (spray rate 200 ppm) and in data set [6] (spray rate 200 ppm) was 100% in each case. In addition, the “RICE BLAST” value in data set [2] was “+++ (+++ = 90-100% control at 100 ppm)”. The mortality at 24 ppm in data set [3] (setting [11]) amounted to 0%. Besides, the mortality at 12 ppm in data set [3] (CRW rate 12.00 ppm) came out at 0%. In data set [4], the “POWD MDEW” value was “+++ (+++ = 90-100% control at 100 ppm)”. Also, the “LEAF RUST” value in data set [7] is “+++ (+++ = 90-100% control at 100 ppm)”. Also, in data set [8], the “DOWN MDEW” value is “+++ (+++ = 90-100% control at 100 ppm)”. Besides, in data set [9], the “GRAY MOLD” value is reported as “- (- = 0-19% control at 400 ppm)”.

Turning to `Fc1cccc2c(OCCc3ccc(-c4ccccc4)cc3)ncnc12` [Example 93, 8-fluoro-4-[2-(1,1'-biphenyl)-4-ylethoxy]quinazoline], the “MA RESULTS %” value in data set [1] (spray rate 200 ppm) is on record as 80%; in [1] (spray rate 400 ppm), 0%. The “RICE BLAST” value in data set [2] was “+++ (+++ = 90-100% control at 100 ppm)”. In addition, the “CRW RESULTS %” value in data set [3] (CRW rate 12.00 ppm) and in data set [3] (CRW rate 24.00 ppm) was 0% in each case. Also, the “POWD MDEW” value in data set [4] is given as “+++ (+++ = 90-100% control at 100 ppm)”. Also, the “SAW RESULTS %” value in [5] (spray rate 200 ppm) and in [5] (spray rate 400 ppm) was 100% throughout. The “SM RESULTS %” value in data set [6] (spray rate 200 ppm) came out at 80%; in data set [6] (spray rate 400 ppm) it was 0%. Moreover, in data set [7], the “LEAF RUST” value is on record as “+++ (+++ = 90-100% control at 100 ppm)”. Further, in data set [8], the “DOWN MDEW” value is recorded as “+++ (+++ = 90-100% control at 100 ppm)”. The “GRAY MOLD” value in [9] was “- (- = 0-19% control at 400 ppm)”.

Turning to `FC(F)(F)c1ccccc1CCOc1ncnc2ccccc12` [Example 47, 4-[2-[2-(trifluoromethyl)phenyl]ethoxy]quinazoline], the mortality at 400 ppm in data set [1] (spray rate 400 ppm), in data set [5] (spray rate 400 ppm) and in [6] (spray rate 400 ppm) was 0% throughout. Further, the “RICE BLAST” value in [2] was “+++ (+++ = 90-100% control at 100 ppm)”. For the same molecule, the mortality at 24 ppm in data set [3] (CRW rate 24.00 ppm) was determined as 0%. For the same molecule, the “POWD MDEW” value in data set [4] is listed as “+++ (+++ = 90-100% control at 100 ppm)”. The “LEAF RUST” value in data set [7] is recorded as “+++ (+++ = 90-100% control at 100 ppm)”. In addition, in [8], the “DOWN MDEW” value is on record as “+++ (+++ = 90-100% control at 100 ppm)”. Also, the “GRAY MOLD” value in [9] is “- (- = 0-19% control at 400 ppm)”.
